Data as given in ChEMBL document CHEMBL5532671, “Leucosceptrane Sesterterpenoids as a New Type of Natural Immunosuppressive Agents in Treating Sepsis” (J Med Chem, 2024).
Activity calls are given as the source filed them. The rule behind the calls is not given here.

Legend:
T-cell [1] = assay: Immunosuppressive activity in C57BL/6 female mouse T-cells isolated from spleen assessed as inhibition of LPS-induced IFN-gamma secretion at 20 uM treated for 48 hrs by ELISA based assay relative to control; assay type: functional; details: C57BL/6, T-cell
T-cell [2] = assay: Immunosuppressive activity in C57BL/6 female mouse T-cells isolated from spleen assessed as inhibition of LPS-induced IFN-gamma secretion treated for 48 hrs by ELISA based assay; assay type: functional; details: C57BL/6, T-cell
T-cell [3] = assay: Inhibition of proliferation of C57BL/6 female mouse T-cells isolated from spleen at 20 uM relative to control; assay type: functional; details: C57BL/6, T-cell
Mus musculus [4] = species: Mus musculus; assay: Immunosuppressive activity in C57BL/6 female mouse T Cells isolated from spleen assessed as inhibition of anti-CD3/CD28-induced IFN-gamma secretion measured after 48 hrs by ELISA based assay relative to control; assay type: functional; details: T-cell
Mus musculus [5] = assay: Antisepsis against LPS-induced sepsis mouse multiorgan damage model model assessed as reduction in multiorgan damage at 25 to 50 mg/kg, IG measured after 24 hrs by H and E staining assay; assay type: functional, organism-based; details: dose 25-50 mg/kg
Mus musculus [6] = assay: Reduction in TNF-alpha level in LPS-induced sepsis mouse model peripheral blood at 25 mg/kg, IG measured after 12 hrs by ELISA based assay; assay type: functional, organism-based
Mus musculus [7] = assay: Reduction in IL-6 level in LPS-induced sepsis mouse model peripheral blood at 50 mg/kg, IG measured after 12 hrs by ELISA based assay; assay type: functional, organism-based
Mus musculus [8] = species: Mus musculus; assay: Antisepsis against LPS-induced sepsis mouse model assessed as increase in survival rate of mouse treated IG measured upto 24 hrs; assay type: functional, organism-based
RAW264.7 [9] = assay: Inhibition of cytokine secretion in mouse RAW264.7 cells assessed as suppression of LPS-induced IL-6 secretion at 40 uM measured after 48 hrs by ELISA based assay; assay type: functional, cell-based
RAW264.7 [10] = assay: Inhibition of cytokine secretion in mouse RAW264.7 cells assessed as suppression of LPS-induced TNF-alpha at 40 uM secretion measured after 48 hrs by ELISA based assay; assay type: functional, cell-based
RAW264.7 [11] = assay: Antiproliferative activity against mouse RAW264.7 cells at 2.5 to 40 uM; assay type: toxicity, cell-based; details: raw264.7, 40 µM, dose 2.5-40 µM
RAW264.7 [12] = assay: Immunosuppressive activity in mouse RAW264.7 cells assessed as reduction in expression of ERK phosphorylation at 10 to 40 uM by Western blot analysis; assay type: functional, cell-based; details: dose 10-40 µM
RAW264.7 [13] = assay: Immunosuppressive activity in mouse RAW264.7 cells assessed as reduction in expression of P70S6K phosphorylation at 10 to 40 uM by Western blot analysis; assay type: functional, cell-based; details: dose 10-40 µM
T-cell [14] = assay: Inhibition of proliferation of C57BL/6 female mouse T-cells isolated from spleen; assay type: functional, cell-based; details: C57BL/6, T-cell
T-cell [15] = assay: Blocked of cell cycle progression in anti-CD3/CD28 stimulated C57BL/6 female mouse T-cells isolated from spleen assessed as increase in cells at G0/G1 phase at 5 to 20 uM measured after 48 hrs by flow cytometry assay; assay type: functional, cell-based; details: dose 5-20 µM
T-cell [16] = assay: Blocked of cell cycle progression in anti-CD3/CD28 stimulated C57BL/6 female mouse T-cells isolated from spleen assessed as decrease in cells at S phase measured after 48 hrs by flow cytometry assay; assay type: functional, cell-based; details: dose 5-20 µM
T-cell [17] = assay: Blocked of cell cycle progression in anti-CD3/CD28 stimulated C57BL/6 female mouse T-cells isolated from spleen assessed as increase in cells at G2/M phase measured after 48 hrs by flow cytometry assay; assay type: functional, cell-based; details: dose 5-20 µM
RAW264.7 [18] = assay: Inhibition of cytokine secretion in mouse RAW264.7 cells assessed as suppression of LPS-induced IL-6 secretion measured after 48 hrs by ELISA based assay; assay type: functional, cell-based; details: dose 2.5-40 µM
RAW264.7 [19] = assay: Inhibition of cytokine secretion in mouse RAW264.7 cells assessed as suppression of LPS-induced TNF-alpha secretion measured after 48 hrs by ELISA based assay; assay type: functional, cell-based; details: dose 2.5-40 µM
RAW264.7 [20] = assay: Immunosuppressive activity in mouse RAW264.7 cells assessed as reduction in expression of JNK phosphorylation at 10 to 40 uM by Western blot analysis; assay type: functional, cell-based; details: dose 10-40 µM
T-cell [21] = assay: Immunosuppressive activity in C57BL/6 female mouse T-cells isolated from spleen assessed as inhibition of LPS-induced IFN-gamma secretion at 1 uM treated for 48 hrs by ELISA based assay relative to control; assay type: functional; details: C57BL/6, T-cell
T-cell [22] = assay: Inhibition of proliferation of C57BL/6 female mouse T-cells isolated from spleen at 1 uM relative to control; assay type: functional; details: C57BL/6, T-cell

Row | Structure (SMILES) | IC50 (T-cell [2]) [µM] | inhibition at 20 µM (T-cell [1]) [%] | inhibition at 20 µM (T-cell [3]) [%] | other results
1 | CC(C)=C[C@H]1O[C@@](C)(C/C=C2\NC(=O)C=C2C)[C@@H]2C(=O)[C@@H]3[C@@H](CC[C@@H]3C)[C@H](C)[C@@]21O | 19.6 | 56.4 | 13.8 | 
2 | CC(C)=C[C@H]1O[C@@](C)(CC[C@@H]2OC(=O)C=C2C)[C@@H]2C(=O)[C@H]3[C@@H](CC[C@@H]3C)[C@H](C)[C@@]21O | 23.6 | 57.6 | 26.7 | 
3 | CC(C)=C[C@H]1O[C@@](C)(CCc2occc2C)[C@@H]2C(=O)[C@@H]3[C@@H](CC[C@@H]3C)[C@H](C)[C@@]21O | 19.9 | 53.7 | < 10 | 
4 | CC(C)=C[C@H]1O[C@@]2(C)C[C@H](c3occc3C)O[C@]13[C@H]2C(=O)[C@@]1(O)[C@@H](C)CC[C@H]1[C@@H]3C | 22 | 57.7 | 18.6 | 
5 | CC(C)=C[C@H]1O[C@@](C)(C/C=C2\NC(=O)C=C2C)C2=C1[C@@H](C)[C@@H]1CC[C@H](C)[C@]1(O)C2=O | 26.8 | 66 | 10.4 | 
6 | C/C=C/C[C@@H](C)[C@@H](O)[C@H]1C(=O)N[C@@H](CC)C(=O)N(C)CC(=O)N(C)[C@@H](CC(C)C)C(=O)N[C@@H](C(C)C)C(=O)N(C)[C@@H](CC(C)C)C(=O)N[C@@H](C)C(=O)N[C@H](C)C(=O)N(C)[C@@H](CC(C)C)C(=O)N(C)[C@@H](CC(C)C)C(=O)N(C)[C@@H](C(C)C)C(=O)N1C [CYCLOSPORINE] |  |  |  | inhibition at 1 µM (T-cell [21]): 99.2%; inhibition at 1 µM (T-cell [22]): 36.7%
7 | CC(C)=C[C@H]1O[C@@](C)(CCc2occc2C)[C@@H]2C(=O)[C@@]3(O)[C@@H](C)CC[C@H]3[C@H](C)[C@@]21O |  | 40.4 | 16.8 | 

Continued, in another order:

Row | IC50 (T-cell [2]) [µM] | Structure (SMILES) | inhibition at 20 µM (T-cell [1]) [%] | inhibition at 20 µM (T-cell [3]) [%] | other results
8 | 11.6 | CC(C)=C[C@H]1O[C@@](C)(C[C@H]2C(=O)C(C)=C[C@@H]2O)[C@@H]2C(=O)[C@@]3(O)[C@@H](C)CC[C@H]3[C@H](C)[C@@]21O | 57.3 | 11.8 | 
9 | 9.94 | CC(C)=CC(=O)[C@@]1(O)[C@@H](C)[C@@H]2CC[C@H](C)[C@H]2C(=O)[C@]1(O)[C@H](C)CC[C@@H]1OC(=O)C=C1C | 54.3 | 14.7 | Activity (Mus musculus [4]): Active; Activity (Mus musculus [5]): Active; Activity (Mus musculus [6]): Active; Activity (Mus musculus [7]): Active; Activity (Mus musculus [8]): Dose-Dependent Effect; inhibition (RAW264.7 [9]): Active; inhibition (RAW264.7 [10]): Active; Activity (RAW264.7 [11]): Non-Toxic; Activity (RAW264.7 [12]): Active; Activity (RAW264.7 [13]): Active
10 | 4.94 | CC(C)=C[C@H]1O[C@@](C)(CCc2occc2C)C2=C1[C@@H](C)[C@@H]1CC[C@H](C)[C@]1(O)C2=O | 73.7 | 39.8 | Activity (Mus musculus [4]): Active; IC50 (T-cell [14]): 32.5 µM; Activity (T-cell [15]): Active; Activity (T-cell [16]): Dose-Dependent Effect; Activity (T-cell [17]): Dose-Dependent Effect; inhibition (RAW264.7 [18]): Dose-Dependent Effect; inhibition (RAW264.7 [19]): Dose-Dependent Effect; Activity (RAW264.7 [11]): Non-Toxic; Activity (RAW264.7 [12]): Active; Activity (RAW264.7 [13]): Active; Activity (RAW264.7 [20]): Active
11 | 5.59 | CC(C)=CC(=O)[C@@]1(O)[C@@H](C)[C@@H]2CC[C@H](C)[C@H]2C(=O)[C@]1(O)[C@H](C)CCc1occc1C | 73.6 | 27.9 | 
12 | 16.7 | CC(C)=CC(=O)[C@@]1(O)[C@@H](C)[C@@H]2CC[C@H](C)[C@H]2C(=O)[C@@]12O[C@@H](c1occc1C)C[C@H]2C | 63.4 | < 10 | 
13 | 12.6 | CC(C)=CC1O[C@@]2(C)CC[C@]3(OC(=O)C=C3C)O[C@]13[C@H]2C(=O)[C@H]1[C@@H](CC[C@@H]1C)[C@@H]3C (some centres undefined) | 69.4 | 51.5 | IC50 (T-cell [14]): 25.8 µM
